Measured values from patent EP0437790B1, “Antithrombotic compounds” (MERRELL DOW PHARMACEUTICALS INC., priority 1989, dated 1991).

Columns and labels:
canine = canine model of cyclic coronary blood flow reduction (Folts); assay type: in vivo; settings: Canis lupus familiaris, iv, cyclic flow reduction of the left anterior descending coronary artery, read-out: DOSAGE TO PREVENT CFR
Description: This procedure is well known in the art and has been described by John D. Folts, Edward B. Crowell Jr. and George G. Rowe, Circulation Vol 54, pages 365-370 (1976).
In Folts's model, the left anterior descending coronary artery of a canine is surgically isolated and the endothelial lining of this artery is purposefully damaged by squeezing the vessel in order to insure that the platelets will have the opportunity to come in contact with the collagen underlying the endothelial lining. This initiates the process of thrombus formation which was described above. An electronic flow probe is then placed on the artery so that blood flow through this vessel can be measured. A constrictor is then placed around the artery to produce a critical stenosis. The stenosis is said to be critical because the degree of stenosis is adjusted to abolish the hyperemic response following a 15 second occlusion of the artery. Shortly after producing the critical stenosis, blood flow through this segment of coronary artery will slowly decrease to near zero followed by a sudden return to control levels. The slow decrease in blood flow is caused by the formation of a platelet thrombus which occludes the artery. The sudden return of blood flow is due to dislodgement of the thrombus and/or its resulting conversion into an emboli.
This model can be utilized to test compounds for the ability to inhibit platelet aggregation and therefore prevent the formation of thrombi.
(§1) 1-(4-Fluorophenyl)-2-[4-[(4-methanesulfonamidophenyl)carbonyl]-1-piperidinyl]-ethanone (Compound #1) and 1-(4-fluorophenyl)-2-[4-[(4-acetamidophenyl)carbonyl]-1-piperidinyl]-ethanone (Compound #2) were tested in this model. For comparative purposes, 1-(3-pyridyl)-2-[4-[(4-methanesulfonamidophenyl)carbonyl]-1-piperidinyl]-ethanone (Compound #3) was also tested in this model. This compound was prepared and described in Example 35 of European Patent Application 0 235 752, supra.

5HT₂ receptor [1] = molecular target: T1, 5HT₂ receptor (Rattus norvegicus, UniProt P14842); assay: [³H] spiroperidol binding test; settings: decrease in binding of [³H] spiroperidol to 5HT₂ receptors; read-out: IC₅₀
T1 construct: from tissue; host or cells: Brain membranes (rat frontal cortex)
T1 sequence (P14842 whole entry): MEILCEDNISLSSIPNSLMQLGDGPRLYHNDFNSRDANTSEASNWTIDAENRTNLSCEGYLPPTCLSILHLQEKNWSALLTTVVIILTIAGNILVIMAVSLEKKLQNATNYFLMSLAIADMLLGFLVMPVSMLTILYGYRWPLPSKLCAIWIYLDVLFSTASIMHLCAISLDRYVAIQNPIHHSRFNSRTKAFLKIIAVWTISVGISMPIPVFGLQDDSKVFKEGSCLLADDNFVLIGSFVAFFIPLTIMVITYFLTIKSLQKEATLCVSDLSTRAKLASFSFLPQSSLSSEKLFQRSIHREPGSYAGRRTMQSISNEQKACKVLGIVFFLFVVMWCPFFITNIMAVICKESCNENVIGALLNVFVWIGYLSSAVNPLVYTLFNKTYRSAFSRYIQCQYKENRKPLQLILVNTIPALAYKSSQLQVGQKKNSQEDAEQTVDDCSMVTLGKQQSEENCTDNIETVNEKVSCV
Description: As noted above, the compounds are also serotonin 5HT₂ antagonists. […] In this test, 5HT₂ receptors are exposed to both [³H] spiroperidol, (a substance known to have a specific affinity for the receptor) and the test compound. The extent to which there is a decrease in binding of the [³H] spiroperidol to the receptor is indicative of the affinity of the test compound for the 5HT₂ receptor.
as §1, with “procedure.” for “model.”, “tested.” for “tested in this model. This compound was prepared and described in Example 35 of European Patent Application 0 235 752, supra.”

5HT₂ receptor [2] = assay: 5-DMT head twitch test; assay type: in vivo; settings: ip; mice; head twitch induced by 5-methoxy-N,N-dimethyltryptamine
Protocol: Psychopharmacol., Vol. 3, pages 89-92, (1979). The administration of 5-methoxy-N,N-dimethyltryptamine (DMT) to mice typically produces a characteristic head twitch in the mice. In this test, the mice are administered 5-DMT and a test compound. An absence of head twitches in the mice is considered to be predictive of the ability of the test compound to antagonize the 5HT₂ receptor in vivo.

`CS(=O)(=O)Nc1ccc(C(=O)C2CCN(CC(=O)c3ccc(F)cc3)CC2)cc1` [Compound #1, 1-(4-Fluorophenyl)-2-[4-[(4-methanesulfonamidophenyl)carbonyl]-1-piperidinyl]-ethanone] was tested, and the minimal effective dose (canine) was 0.001 mg/kg, the IC50 (5HT₂ receptor [1]) was 78 nM and the “ED₅₀ FOR ABOLITION OF HEAD TWITCH” value (5HT₂ receptor [2]) was 0.034 mg/kg.

With `CC(=O)Nc1ccc(C(=O)C2CCN(CC(=O)c3ccc(F)cc3)CC2)cc1` [Compound #2, 1-(4-fluorophenyl)-2-[4-[(4-acetamidophenyl)carbonyl]-1-piperidinyl]-ethanone] the minimal effective dose (canine) was 0.001 mg/kg, the IC50 (5HT₂ receptor [1]) was 20 nM and the “ED₅₀ FOR ABOLITION OF HEAD TWITCH” value (5HT₂ receptor [2]) was 0.051 mg/kg.

For `CS(=O)(=O)Nc1ccc(C(=O)C2CCN(CC(=O)c3cccnc3)CC2)cc1` [Compound #3, 1-(3-pyridyl)-2-[4-[(4-methanesulfonamidophenyl)carbonyl]-1-piperidinyl]-ethanone, reference compound], the minimal effective dose (canine) was over 0.1 mg/kg, the IC50 (5HT₂ receptor [1]) was over 5000 nM and the “ED₅₀ FOR ABOLITION OF HEAD TWITCH” value (5HT₂ receptor [2]) was over 200 mg/kg.
